Reference: ChEMBL document CHEMBL3243945, “Antiinflammatory activity of isomeric phenylnaphthaleneacetic acids” (J Med Chem, 1977)

Columns and labels:
Cavia porcellus = assay: Antiinflammatory activity in depilated albino guinea pig assessed as suppression of UV radiation-induced skin erythema compound administered via gavage measured 2 hrs after UV irradiation exposure; format: functional; conditions: light or radiation study, po, read-out: MED
[1] = Dissociation constant, pKa of the compound in DMF-H2O (6.7% v/v) by titration method; format: physicochemical

| pKa [1] | SMILES | minimal effective dose (Cavia porcellus) |
| --- | --- | --- |
| 6.7 | O=C(O)Cc1ccc2ccc(-c3ccccc3)cc2c1 | > 50 mg/kg |
| 6.9 | O=C(O)Cc1cccc2ccc(-c3ccccc3)cc12 | 100 mg/kg |
| 6.9 | O=C(O)Cc1c(-c2ccccc2)ccc2ccccc12 | > 50 mg/kg |
| 7 | O=C(O)Cc1cc(-c2ccccc2)c2ccccc2c1 | 100 mg/kg |
| 6.9 | O=C(O)Cc1cccc2cc(-c3ccccc3)ccc12 | 25 mg/kg |
| 7.2 | O=C(O)Cc1ccc2ccccc2c1-c1ccccc1 | > 200 mg/kg |
| 6.8 | O=C(O)Cc1ccc2cccc(-c3ccccc3)c2c1 | > 100 mg/kg |
| 6.8 | O=C(O)Cc1ccc(-c2ccccc2)c2ccccc12 | 0.1 mg/kg |
| 6.6 | O=C(O)Cc1ccc2c(-c3ccccc3)cccc2c1 | 3.1 mg/kg |
| 6.7 | O=C(O)Cc1cc(-c2ccccc2)cc2ccccc12 | 50 mg/kg |
| 6.7 | O=C(O)Cc1cccc2c(-c3ccccc3)cccc12 | 0.1 mg/kg |
| 6.6 | O=C(O)Cc1ccc2cc(-c3ccccc3)ccc2c1 | 3.1 mg/kg |
|  | COc1ccc2c(c1)c(CC(=O)O)c(C)n2C(=O)c1ccc(Cl)cc1 [INDOMETHACIN] | 1.7 mg/kg |
|  | Cc1ccc(Cl)c(Nc2ccccc2C(=O)O)c1Cl [MECLOFENAMIC ACID] | 0.4 mg/kg |
| 7.1 | O=C(O)Cc1cc2ccccc2cc1-c1ccccc1 | > 200 mg/kg |
|  | CCCCC1C(=O)N(c2ccccc2)N(c2ccccc2)C1=O [PHENYLBUTAZONE] | 5.3 mg/kg |
